{
  "source": "patent US20080227713A1",
  "about": "“Oxidized Human Bnp” (priority 2005, published 2008)",
  "key": {"[1]": {"assay": "Plasma peptide levels (EIA) during dose-escalating continuous intravenous infusion in conscious rabbits", "assay_type": "in vivo", "conditions": "rabbit; for Plasma steady state concentration: n = 6", "from_the_text": "(§1) New Zealand White male rabbits (R & R Rabbitry, WA) weighing 2.5 to 3.0 kg, were used in the study. Upon receipt, the animals were allowed a 1-week acclimation period at the animal facility to ensure proper health status prior to the study. On the day of the study, the rabbits were weighed and placed in an open top plexiglass restrainers with adjustable plexiglass and nylon covers. The ears were shaved, 2% Lidocaine HCl (Xylocalne jelly, Astra, Westborough, Mass.) was applied topically on the surface of the ears, and IV catheters (Angiocath, Becton Dickinson, Utah) fitted with heparin locks were inserted into the intermedial branch of the peripheral ear vein for drug administration and into the central ear artery for repeated blood sampling.\n(§2) Blood samples were drawn 20 minutes prior to and 0, 50, 55, 60, 110, 115, 120, 170, 175, and 180 minutes following initiation of the infusion. […] Blood samples were taken at 20 minutes prior to dosing, immediately prior to dosing and 5, 10, 15, 30, 60, and 90 minutes after dosing. Blood samples (3 mL) was drawn at each time point and the volume replaced with an equal volume of 0.9% NaCl. Blood was collected into EDTA coated tubes containing aprotinin (150 kallikrein inhibitory units/tube) and centrifuged immediately.\n(§3) The plasma samples were diluted appropriately with pooled normal rabbit plasma prior to assay. […] Levels of the biotinylated probe were measured by using a sensitive enzyme based detection system, avidin-HRP, and a […] that provided a colorimetric endpoint."}, "[2]": {"assay": "Plasma peptide levels (EIA) after a single intravenous bolus in conscious rabbits", "conditions": "male, New Zealand White, in vivo, 30 ug/kg, rabbit, single iv bolus 30 μg/kg, n = 4", "from_the_text": "as §1, §2, §3"}, "plasma cyclic GMP [3]": {"system": "plasma cyclic GMP", "assay": "Plasma cyclic GMP during dose-escalating continuous intravenous infusion in conscious rabbits", "assay_type": "in vivo", "conditions": "rabbit; for Mean Plasma Cyclic GMP ± SD: n = 6", "from_the_text": "as §1, §2\n(§4) Plasma cyclic GMP levels were determined by radioimmunoassay (DuPont, Boston, Mass.). […] Separation of the bound from free antigen was performed using a pre-reacted primary and secondary antibody complex. Prior to the assay, the plasma samples were extracted with ethanol and the supernate evaporated to dryness in a speed vac concentrator (Savant Instruments, Holbrook, N.Y.). The dried samples were reconstituted with sodium acetate buffer. Plasma cyclic GMP levels were determined by interpolation from the standard curve (0.01 to 10 pmol/mL)."}, "plasma cyclic GMP [4]": {"system": "plasma cyclic GMP", "assay": "Plasma cyclic GMP after a single intravenous bolus in conscious rabbits", "assay_type": "in vivo", "conditions": "rabbit, single iv bolus 30 μg/kg, n = 4", "from_the_text": "as §1, §2, §4"}},
  "note": "Marks after values point to notes of the source that are not given here.",
  "data": [
    {"molecule": "CC[C@H](C)[C@@H]1NC(=O)[C@H](CCCNC(=N)N)NC(=O)[C@H](CC(=O)O)NC(=O)[C@H](CCSC)NC(=O)[C@H](CCCCN)NC(=O)[C@H](CCCNC(=N)N)NC(=O)CNC(=O)[C@H](Cc2ccccc2)NC(=O)[C@@H](NC(=O)CNC(=O)[C@H](CO)NC(=O)CNC(=O)[C@H](CCC(N)=O)NC(=O)[C@@H](NC(=O)[C@H](CCSC)NC(=O)[C@H](CCCCN)NC(=O)[C@@H]2CCCN2C(=O)[C@@H](N)CO)C(C)C)CSSC[C@@H](C(=O)N[C@@H](CCCCN)C(=O)N[C@H](C(=O)N[C@@H](CC(C)C)C(=O)N[C@@H](CCCNC(=N)N)C(=O)N[C@@H](CCCNC(=N)N)C(=O)N[C@@H](Cc2c[nH]cn2)C(=O)O)C(C)C)NC(=O)CNC(=O)[C@H](CC(C)C)NC(=O)CNC(=O)[C@H](CO)NC(=O)[C@H](CO)NC(=O)[C@H](CO)NC(=O)[C@H](CO)NC1=O", "note": "[hBNP, Ser^1-Pro^2-Lys^3-Met^4-Val^5-Gln^6-Gly^7-Ser^8-Gly^9-Cys^10-Phe^11-Gly^12-Arg^13-Lys^14-Met^15-Asp^16-Arg^17-Ile^18-Ser^19-Ser^20-Ser^21-Ser^22-Gly^23-Leu^24-Gly^25-Cys^26-Lys^27-Val^28-Leu^29-Arg^30-Lys^31-His^32]", "values": [
      {"measurement": "level at 50 min", "setting": "[1]; male, New Zealand White, plasma, 0.05 ug/kg/min, iv infusion 0.05 μg/kg/min, 50 min, N = 6", "value": 1.39, "unit": "ng/mL"},
      {"measurement": "level at 55 min", "setting": "[1]; male, New Zealand White, plasma, 0.05 ug/kg/min, iv infusion 0.05 μg/kg/min, 55 min, N = 6", "value": 1.28, "unit": "ng/mL"},
      {"measurement": "level at 1 h", "setting": "[1]; male, New Zealand White, plasma, 0.05 ug/kg/min, iv infusion 0.05 μg/kg/min, 60 min, N = 6", "value": 1.29, "unit": "ng/mL"},
      {"measurement": "level at 110 min", "setting": "[1]; male, New Zealand White, plasma, 0.1 ug/kg/min, iv infusion 0.1 μg/kg/min, 110 min, N = 6", "value": 3.85, "unit": "ng/mL"},
      {"measurement": "level at 115 min", "setting": "[1]; male, New Zealand White, plasma, 0.1 ug/kg/min, iv infusion 0.1 μg/kg/min, 115 min, N = 6", "value": 3.7, "unit": "ng/mL"},
      {"measurement": "level at 2 h", "setting": "[1]; male, New Zealand White, plasma, 0.1 ug/kg/min, iv infusion 0.1 μg/kg/min, 120 min, N = 6", "value": 2.75, "unit": "ng/mL"},
      {"measurement": "level at 170 min", "setting": "[1]; male, New Zealand White, plasma, 0.2 ug/kg/min, iv infusion 0.2 μg/kg/min, 170 min, N = 6", "value": 7.4, "unit": "ng/mL"},
      {"measurement": "level at 175 min", "setting": "[1]; male, New Zealand White, plasma, 0.2 ug/kg/min, iv infusion 0.2 μg/kg/min, 175 min, N = 6", "value": 8.07, "unit": "ng/mL"},
      {"measurement": "level at 3 h", "setting": "[1]; male, New Zealand White, plasma, 0.2 ug/kg/min, iv infusion 0.2 μg/kg/min, 180 min, N = 6", "value": 6.59, "unit": "ng/mL"},
      {"measurement": "level at 0 h", "setting": "[1]; male, New Zealand White, plasma, iv, 0 ug/kg/min, 0 μg/kg/min (before infusion), 0 min, N = 6", "value": 0.146, "unit": "ng/mL"},
      {"measurement": "level at -20 min", "setting": "[1]; male, New Zealand White, plasma, iv, 0 ug/kg/min, 0 μg/kg/min (before infusion), −20 min, N = 6", "value": 0.166, "unit": "ng/mL"},
      {"measurement": "Plasma steady state concentration", "setting": "[1]; infusion rate 0.05 μg/kg/min", "value": "1319 ± 615", "unit": "pg/mL"},
      {"measurement": "Plasma steady state concentration", "setting": "[1]; infusion rate 0.1 μg/kg/min", "value": "3434 ± 952", "unit": "pg/mL"},
      {"measurement": "Plasma steady state concentration", "setting": "[1]; infusion rate 0.2 μg/kg/min", "value": "7357 ± 1569", "unit": "pg/mL"},
      {"measurement": "level at 5 min", "setting": "[2]; 5 min", "value": 50.1, "unit": "ng/mL"},
      {"measurement": "level at 10 min", "setting": "[2]; 10 min", "value": 12, "unit": "ng/mL"},
      {"measurement": "level at […]", "setting": "[2]; 15 min", "value": 4.67, "unit": "ng/mL"},
      {"measurement": "level at 0.5 h", "setting": "[2]; 30 min", "value": 1.21, "unit": "ng/mL"},
      {"measurement": "level at 1 h", "setting": "[2]; 60 min", "value": 0.122, "unit": "ng/mL"},
      {"measurement": "level at […]", "setting": "[2]; 90 min", "value": 0.051, "unit": "ng/mL"},
      {"measurement": "Mean Plasma Cyclic GMP ± SD", "setting": "plasma cyclic GMP [3]; 0 μg/kg/min (saline), 0 min", "value": "30 ± 16", "unit": "pmol/mL"},
      {"measurement": "Mean Plasma Cyclic GMP ± SD", "setting": "plasma cyclic GMP [3]; 0 μg/kg/min (saline), −20 min", "value": "34 ± 15", "unit": "pmol/mL"},
      {"measurement": "Change of plasma cyclic GMP during continuous infusion", "setting": "plasma cyclic GMP [3]; 0.05, 0.1, 0.2 μg/kg/min, in words", "value": "dose-related increase in plasma cyclic GMP"},
      {"measurement": "Mean Plasma Cyclic GMP ± SD", "setting": "plasma cyclic GMP [3]; iv infusion 0.05 μg/kg/min, 50 min", "value": "68 ± 33", "unit": "pmol/mL"},
      {"measurement": "Mean Plasma Cyclic GMP ± SD", "setting": "plasma cyclic GMP [3]; iv infusion 0.05 μg/kg/min, 55 min", "value": "87 ± 29", "unit": "pmol/mL"},
      {"measurement": "Mean Plasma Cyclic GMP ± SD", "setting": "plasma cyclic GMP [3]; iv infusion 0.05 μg/kg/min, 60 min", "value": "92 ± 34", "unit": "pmol/mL"},
      {"measurement": "Mean Plasma Cyclic GMP ± SD", "setting": "plasma cyclic GMP [3]; iv infusion 0.1 μg/kg/min, 110 min", "value": "131 ± 38", "unit": "pmol/mL"},
      {"measurement": "Mean Plasma Cyclic GMP ± SD", "setting": "plasma cyclic GMP [3]; iv infusion 0.1 μg/kg/min, 115 min", "value": "122 ± 35", "unit": "pmol/mL"},
      {"measurement": "Mean Plasma Cyclic GMP ± SD", "setting": "plasma cyclic GMP [3]; iv infusion 0.1 μg/kg/min, 120 min", "value": "125 ± 27", "unit": "pmol/mL"},
      {"measurement": "Mean Plasma Cyclic GMP ± SD", "setting": "plasma cyclic GMP [3]; iv infusion 0.2 μg/kg/min, 170 min", "value": "159 ± 37", "unit": "pmol/mL"},
      {"measurement": "Mean Plasma Cyclic GMP ± SD", "setting": "plasma cyclic GMP [3]; iv infusion 0.2 μg/kg/min, 175 min", "value": "170 ± 43", "unit": "pmol/mL"},
      {"measurement": "Mean Plasma Cyclic GMP ± SD", "setting": "plasma cyclic GMP [3]; iv infusion 0.2 μg/kg/min, 180 min", "value": "145 ± 31", "unit": "pmol/mL"},
      {"measurement": "Plasma Cyclic GMP", "setting": "plasma cyclic GMP [4]; 0 min (before dosing)", "value": 47, "unit": "pmol/mL"},
      {"measurement": "Plasma Cyclic GMP", "setting": "plasma cyclic GMP [4]; 5 min", "value": "201* pmol/mL"},
      {"measurement": "Plasma Cyclic GMP", "setting": "plasma cyclic GMP [4]; 10 min", "value": "214* pmol/mL"},
      {"measurement": "Plasma Cyclic GMP", "setting": "plasma cyclic GMP [4]; 15 min", "value": "189* pmol/mL"},
      {"measurement": "Plasma Cyclic GMP", "setting": "plasma cyclic GMP [4]; 30 min", "value": 146, "unit": "pmol/mL"},
      {"measurement": "Plasma Cyclic GMP", "setting": "plasma cyclic GMP [4]; 60 min", "value": 65, "unit": "pmol/mL"},
      {"measurement": "Plasma Cyclic GMP", "setting": "plasma cyclic GMP [4]; 90 min", "value": 40, "unit": "pmol/mL"},
      {"measurement": "Plasma Cyclic GMP", "setting": "plasma cyclic GMP [4]; −20 min (before dosing)", "value": 46, "unit": "pmol/mL"}
    ]}
  ]
}
